Experimental data as given in patent US6645983B1, “Pharmaceutical compositions comprising 4-quinolones for treating cancers” (Laboratoire L. Lafon, priority 1999, dated 2003).

Tests used:
[1] = Determination of the maximum tolerated dose (MTD); details: B6D2F1/Jico, mouse, in vivo, ip; single intraperitoneal administration, doses 2.5 to 160 mg/kg, survival over 14 days
Protocol: The evaluation of the maximum tolerated dose was performed on 4- to 6-week-old B6D2F1/Jico mice. The compounds were administered intraperitoneally at increasing doses ranging from 2.5 to 160 mg/kg. The value of the MTD (expressed in mg/kg) is determined from the observation of the survival rate of the animals over a 14-day period after a single administration of the product under consideration. The change in weight of the animals is also monitored during this period. When the MTD value is greater than 160 mg/kg, the MTD value is considered as being 160 mg/kg by default.

[2] = system: T24; experiment: MTT test, cytotoxic activity on non-clonogenic cell lines; type: cell-based; details: Homo sapiens, T-24; 10^−5 M, 72 hours of incubation, control condition = 100%, mean value; read-out: mean optical density as percentage of control, T24
Protocol: (§1) The principle of the MTT test is based on the mitochondrial reduction, by the metabolically active live cells, of the yellow-colored product MTT (3-(4,5-dimethylthiazol-2-yl)-2,5-diphenyltetrazolium bromide) to a blue-colored product, formazan. The amount of formazan thus obtained is directly proportional to the amount of live cells present in the culture well(s). This amount of formazan is measured by spectrophotometry.
(§2) The cell lines are maintained as a monolayer culture at 37° C. in stoppered culture dishes containing MEM 25 MM HEPES (Minimum Essential Medium) base medium. This medium is suited to the growth of a range of various mammalian diploid or primary cells. This medium is then supplemented with:
(§3) The 12 human cancer cell lines which were used were obtained from the American Type Culture Collection (ATCC, Rockville, Md., USA). These 12 cell lines are:
(§4) J82 (code ATCC: HTB-1) and T24 (code ATCC: HTB-4) which are two bladder cancers,
(§5) Experimentally, 100 μl of a cell suspension containing 20 000 to 50 000 (depending on the cell type used) cells/ml of culture medium are inoculated -in 96-well flat-bottomed multi-well plates and are left to stand in an incubator at 37° C., 5% CO2 and 70% humidity. After an incubation time of 24 hours, the culture medium is replaced with 100 μl of fresh medium containing either the various test compounds—at concentrations varying from 10^−5 to 10^−10 M—or the solvent having served for dissolving the products to be tested (control condition). […] The microplates are thus incubated for 3 hours at 37° C., then centrifuged for 10 minutes at 400 g. The yellowish solution of MTT is removed and the blue formazan crystals formed in the cell region are dissolved in 100 μl or DMSO. The microplates are then shaken for 5 minutes. […] Software incorporated in the spectrophotometer calculates the average optical density values and the standard deviation (SD) and standard error of mean (SEM) values.

[3] = system: J82; experiment: as above; type: cell-based; details: Homo sapiens, 10^−5 M, 72 hours of incubation, control condition = 100%, mean value, read-out: mean optical density as percentage of control, J82
Protocol: as §1, §2, §3, §4, §5

[4] = system: PC-3; experiment: as above; type: cell-based; details: Homo sapiens, 10^−5 M, 72 hours of incubation, control condition = 100%, mean value, read-out: mean optical density as percentage of control, PC-3
Protocol: as §1, §2, §3, §5

[5] = system: A-427; experiment: as above; type: cell-based; details: Homo sapiens, 10^−5 M, 72 hours of incubation, control condition = 100%, mean value, read-out: mean optical density as percentage of control, A-427
Protocol: as §1, §2, §3, §5

[6] = system: T-47D; experiment: as above; type: cell-based; details: Homo sapiens, T47D; 10^−5 M, 72 hours of incubation, control condition = 100%, mean value; read-out: mean optical density as percentage of control, T-47D
Protocol: as §1, §2, §3, §5

[7] = system: U-373MG; experiment: as above; type: cell-based; details: Homo sapiens, U373 MG; 10^−5 M, 72 hours of incubation, control condition = 100%, mean value; read-out: mean optical density as percentage of control, U-373MG
Protocol: as §1, §2, §3, §5

[8] = system: U-87MG; experiment: as above; type: cell-based; details: Homo sapiens, U-87 MG; 10^−5 M, 72 hours of incubation, control condition = 100%, mean value; read-out: mean optical density as percentage of control, U-87MG
Protocol: as §1, §2, §3, §5

[9] = system: A549; experiment: as above; type: cell-based; details: Homo sapiens, 10^−5 M, 72 hours of incubation, control condition = 100%, mean value, read-out: mean optical density as percentage of control, A549
Protocol: as §1, §2, §3, §5

[10] = system: HCT-15; experiment: as above; type: cell-based; details: Homo sapiens, 10^−5 M, 72 hours of incubation, control condition = 100%, mean value, read-out: mean optical density as percentage of control, HCT-16
Protocol: as §1, §2, §3, §5

[11] = system: MCF7; experiment: as above; type: cell-based; details: Homo sapiens, 10^−5 M, 72 hours of incubation, control condition = 100%, mean value, read-out: mean optical density as percentage of control, MCF7
Protocol: as §1, §2, §3, §5

[12] = system: LoVo; experiment: as above; type: cell-based; details: Homo sapiens, 10^−5 M, 72 hours of incubation, control condition = 100%, mean value, read-out: mean optical density as percentage of control, LoVo
Protocol: as §1, §2, §3, §5

[13] = system: SW1088; experiment: as above; type: cell-based; details: Homo sapiens, 10^−5 M, 72 hours of incubation, control condition = 100%, mean value, read-out: mean optical density as percentage of control, SW1088
Protocol: as §1, §2, §3
SW1088 (code ATCC: HTB-12) which is an astro-cytoma,
as §5

| Compound | MTD at 14 day [1] [mg/kg] | viability at 10 µM [2] [%] | viability at 10 µM [3] [%] | viability at 10 µM [4] [%] | viability at 10 µM [5] [%] | viability at 10 µM [6] [%] | viability at 10 µM [7] [%] | viability at 10 µM [8] [%] | viability at 10 µM [9] [%] | viability at 10 µM [10] [%] | viability at 10 µM [11] [%] | viability at 10 µM [12] [%] | viability at 10 µM [13] [%] |
| --- | --- | --- | --- | --- | --- | --- | --- | --- | --- | --- | --- | --- | --- |
| CCN(CC)C(=O)Cn1cc(-c2ccc(OC)cc2)c(=O)c2c(OC)ccc(OC)c21 [CRL8380, N,N-Diethyl-2-[5,8-dimethoxy-3-(4-methoxyphenyl)-4-oxo-1,4-dihydro-1-quinolinyl]acetamide] | > 160 | 94.9 | 98.9 | 102 | 89.3 | 88.1 | 101 | 87.5 | 95 | 103 | 102 | 108 | 100 |
| CCOC(=O)Cn1cc(-c2ccc(OC)cc2)c(=O)c2c(OC)ccc(OC)c21 [CRL8381, Ethyl 2-[5,8-dimethoxy-3-(4-methoxyphenyl)-4-oxo-1,4-dihydro-1-quinolinyl]acetate] | > 160 | 83.2 | 90.9 | 79.1 | 84.2 | 92.6 | 91.8 | 48.1 | 73.8 | 90.5 | 67.2 | 105 | 55.9 |
| COc1ccc(-c2cn(CCN(C)C)c3c(OC)ccc(OC)c3c2=O)cc1 [CRL8382, N-[3-(Dimethylamino)ethyl]-5,8-dimethoxy-3-(4-methoxyphenyl)-1,4-dihydro-4-quinolinone] | > 160 | 99.7 | 95.6 | 100 | 89.2 | 94.7 | 101 | 59.2 | 90.4 | 93.1 | 93 | 96.7 | 118 |
| COc1ccc(OC)c2c1c(=O)c(-c1ccccc1)cn2C [CRL8383, 5,8-Dimethoxy-1-methyl-3-phenyl-1,4-dihydro-4-quinolinone] | > 160 | 180 | 94.6 | 88.3 | 92.1 | 75.3 | 83.5 | 69.5 | 84.1 | 100 | 85 | 89.1 | 75.9 |
| COc1ccc(-c2c[nH]c3c(OC)ccc(O)c3c2=O)cc1 [CRL8391, 5-Hydroxy-8-methoxy-3-(4-methoxyphenyl)-1,4-dihydro-4-quinolinone] | > 160 | 101 | 99.6 | 80 | 80.5 | 99.3 | 93.5 | 74 | 88.3 | 80.6 | 97.3 | 87.2 | 92.5 |
| COc1ccc(-c2cn(C)c3c(OC)ccc(O)c3c2=O)cc1 [CRL8392, 5-Hydroxy-8-methoxy-3-(4-methoxyphenyl)-1-methyl-1,4-dihydro-4-quinolinone] | > 160 | 63 | 70.6 | 51.6 | 49.7 | 68.6 | 90.2 | 82.7 | 77.6 | 77.4 | 74 | 79.7 | 89.8 |
| CCc1cc(OC)cc2c1c(=O)c(-c1ccc(OC)cc1)cn2C [CRL8393, 5-Ethyl-7-methoxy-3-(4-methoxyphenyl)-1-methyl-1,4-dihydro-4-quinolinone] | > 160 | 95.3 | 97.9 | 87.3 | 23.7 | 68.8 | 74.7 | 89.9 | 93 | 41.8 | 89.7 | 84.6 | 82.8 |
| COc1ccc(-c2cn(C)c3cc(OC)cc(-c4ccccc4)c3c2=O)cc1 [CRL8394, 7-Methoxy-3-(4-methoxyphenyl)-1-methyl-5-phenyl-1,4-dihydro-4-quinolinone] | > 160 | 92.9 | 93.5 | 83.2 | 38.9 | 94.3 | 73.5 | 42.2 | 52.9 | 37.7 | 78 | 45.1 | 68.5 |
| CCOC(=O)CCn1cc(-c2ccc(OC)cc2)c(=O)c2c(OC)cc(OC)cc21 [CRL8404] | > 160 | 59.8 | 83.8 | 99.7 | 93.3 | 66.7 | 104 | 91.5 | 93.5 | 93.7 | 93.4 | 90.7 | 72.1 |
| COc1ccc(-c2cn(C)c3c(OC)ccc(-c4ccccc4)c3c2=O)cc1 [CRL8405, 8-Methoxy-3-(4-methoxyphenyl)-1-methyl-5-phenyl-1,4-dihydro-4-quinolinone] | > 160 | 57.8 | 93.9 | 85.5 | 19.4 | 77.1 | 28.8 | 25.8 | 32 | 15.9 | 68.2 | 32.3 | 40.8 |
| COc1ccc(-c2cn(CCC#N)c3cc(OC)cc(OC)c3c2=O)cc1 [CRL8412, 3-[5,7-Dimethoxy-3-(4-methoxyphenyl)-4-oxo-1,4-dihydro-1-quinolinyl]propanenitrile] | > 160 | 100 | 94.2 | 104 | 83.7 | 109 | 80.8 | 83.4 | 84.5 | 83.6 | 99.1 | 77 | 105 |
